The results in this text go back to US11306063B2, “Heterocyclic naphthoquinones derivatives for use in the treatment of cancers including Cushing disease” (Commissariat a l'Energie Atomique et aux Energies …, priority 2016, dated 2022).

By EC50 is commonly meant the midpoint of the concentration-response curve. As a reminder, the inhibition is the change of the read-out against control, counted positive when it falls. A high value points to strong suppression. Broadly, the IC50 is the concentration that gives 50% inhibition.

Molecules are shown by their SMILES. Like-named read-outs stand apart in the source and are kept apart here. Where only a bound is given, the exact number is not on record here.

One assay relates to MESSA cells. Description: Cytotoxicity assay (PrestoBlue cell viability), MESSA. It is filed as cell-based. The following applies: Homo sapiens, MES-SA; 48 hours treatment; concentration inducing 50% cell mortality. The method, then: (§1) Messa, Messa DX5, HCT116, HEK-293, PC-3, LNCaP, HCC827 and H1975 cell lines are issued from the American Type Culture Collection (ATCC).
(§2) Messa, Messa DX5 and HCT116 were maintained in McCoy's supplemented with 10% fetal bovine serum, and 1% penicillin/streptomycin. PC-3, LNCaP cells were maintained in RPMI medium supplemented with 10% fetal bovine serum, and 1% penicilin/streptomycin and in the case of Messa DX5: 500 nM Doxorubicin was added to maintain selection pressure. HEK293 were maintained in DMEM medium supplemented with 10% fetal bovine serum, and 1% penicillin/streptomycin. Cells were maintained at 37° C. with 5% CO2, 95% air, and humid atmosphere. In the case of hormonal dependent LNCaP cells, 2 μM DiHydroTestosterone (DHT) was added or not—depending on the type of biological assay—for the same incubation period as compounds.
(§3) For cytotoxicity assays, cells were seeded in 96-well microplates 24 hours before the addition of increasing concentrations of each compound in the culture medium. Cell viability was analyzed 48 hours following addition of each compound through the monitoring of mitochondrial […] activity using PrestoBlue® Cell Viability Reagent (Invitrogen; #A-13261). Paclitaxel was used as a control which is cytotoxic on various cancerous cells although not on chemoresistant MESSA DX5 lineage.

A further assay concerns MESSA DX5 cells. Description: Cytotoxicity assay (PrestoBlue cell viability), MESSA DX5. It is filed as cell-based, human. The method, then: as §1, §2, §3
Assay [1] has as its target T1, USP2 full length (USP2^FL) (Homo sapiens, UniProt O75604).
T1 construct: purchased BioSciences 80352
T1 sequence (O75604 1-605): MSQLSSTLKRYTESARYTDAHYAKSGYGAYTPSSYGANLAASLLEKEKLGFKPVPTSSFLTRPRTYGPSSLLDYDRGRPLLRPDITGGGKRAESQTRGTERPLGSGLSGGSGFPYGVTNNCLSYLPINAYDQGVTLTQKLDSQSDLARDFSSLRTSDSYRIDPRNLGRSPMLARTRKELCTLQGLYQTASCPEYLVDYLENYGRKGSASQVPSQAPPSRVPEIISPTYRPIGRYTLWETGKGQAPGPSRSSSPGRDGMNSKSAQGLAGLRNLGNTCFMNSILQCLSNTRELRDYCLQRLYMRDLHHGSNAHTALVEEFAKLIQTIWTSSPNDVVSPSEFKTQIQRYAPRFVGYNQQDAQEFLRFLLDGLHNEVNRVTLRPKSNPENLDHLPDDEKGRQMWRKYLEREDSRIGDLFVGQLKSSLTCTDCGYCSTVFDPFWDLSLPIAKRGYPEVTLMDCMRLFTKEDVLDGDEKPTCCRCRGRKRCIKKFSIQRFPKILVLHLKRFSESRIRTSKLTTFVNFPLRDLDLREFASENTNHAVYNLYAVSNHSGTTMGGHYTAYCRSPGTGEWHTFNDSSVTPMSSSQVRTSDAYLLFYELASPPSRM
Kind of assay: Inhibition of Ub-AMC hydrolysis by USP2 full length. The class given is biochemical. The conditions noted are these: Ub-AMC at 1 μM, Table 1a; for inhibition at 1 µM: 1 μM compound; for inhibition at 5 µM: 5 μM compound; for inhibition at 25 µM: 25 μM compound; for inhibition at 50 µM: 50 μM compound. As for the experimental part: (§4) Enzymatic assay was performed in a HEPES buffer (50 mM pH7.6 1 mM DTT, 2% glycerol, 0.5 mM EDTA) or in a Tris buffer (40 mM pH7.4 1 mM DTT, 5% glycerol, 0.05 mg/ml BSA) respectively, following manufacturer's instructions. Compounds were added to the reaction mixture just prior to the substrate. The enzymatic reaction kinetics was monitored through the apparition of fluorescence due to the hydrolysis of the peptidyl Ub-AMC or Ub-Rho bound over 20 or 30 minutes.

Assay [2] deals with T2, USP2^CD (purified catalytic domain of USP2) (Homo sapiens, UniProt O75604).
T2 construct: The purified catalytic domain of USP2 (USP2^CD, in-house purified); His; made in house; host or cells: E. coli BL21 Gold
T2 sequence (O75604 267-599 limits assumed): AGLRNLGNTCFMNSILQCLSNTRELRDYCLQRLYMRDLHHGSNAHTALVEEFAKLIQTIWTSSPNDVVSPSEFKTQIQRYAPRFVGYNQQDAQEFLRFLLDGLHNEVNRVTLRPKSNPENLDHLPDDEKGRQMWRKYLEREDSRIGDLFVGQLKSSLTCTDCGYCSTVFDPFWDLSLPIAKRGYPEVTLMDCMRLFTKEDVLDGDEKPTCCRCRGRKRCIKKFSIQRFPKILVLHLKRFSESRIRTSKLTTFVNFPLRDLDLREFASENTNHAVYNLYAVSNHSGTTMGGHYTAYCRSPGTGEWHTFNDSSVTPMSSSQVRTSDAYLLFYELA
Kind of assay: Inhibition of purified USP2^CD enzymatic activity (Ub-AMC or Ub-Rho substrate). The class given is biochemical. As for the experimental part:
(§5) USP2CD or USP8CD were expressed in E. coli BL21 Gold. Cells were grown in LB Miller to mid-log phase and induced by addition of 0.5 mM IPTG for USP2CD for 5 h at 20° C., while 1 mM IPTG was added for USP8CD for 3 h at 37° C. Then, cells were harvested and frozen at −80° C.
For His-tagged USP2CD, cells were resuspended in buffer C (10 mM TRIS pH 8.0, 100 mM NaCl, 10 mM Imidazole) and lysed using a sonicator. The lysate was clarified by centrifugation and applied to Ni Sepharose6 Fast Flow resin (GE Healthcare). The resin was sequentially washed with buffer C, then with buffer C containing 50 mM Imidazole. Protein sample was eluted from the resin using buffer C containing 250 mM Imidazole. The eluted protein was buffer exchanged by gel-filtration on a Superdex 200 10/300 GL column (GE Healthcare) equilibrated in Buffer D (15 mM Bis-TRIS pH 6.0, 100 mM NaCl, 1 mM dithiothreitol (DTT)).
as §4
(§6) Medium value out of duplicates is reported.

Assay [3] has as its target T3, USP8^CD (purified catalytic domain of USP8) (Homo sapiens, UniProt P40818).
T3 construct: the purified catalytic domain of USP8 (USP8^CD, in-house purified); made in house; host or cells: E. coli BL21 Gold
T3 sequence (P40818 777-1109 limits assumed): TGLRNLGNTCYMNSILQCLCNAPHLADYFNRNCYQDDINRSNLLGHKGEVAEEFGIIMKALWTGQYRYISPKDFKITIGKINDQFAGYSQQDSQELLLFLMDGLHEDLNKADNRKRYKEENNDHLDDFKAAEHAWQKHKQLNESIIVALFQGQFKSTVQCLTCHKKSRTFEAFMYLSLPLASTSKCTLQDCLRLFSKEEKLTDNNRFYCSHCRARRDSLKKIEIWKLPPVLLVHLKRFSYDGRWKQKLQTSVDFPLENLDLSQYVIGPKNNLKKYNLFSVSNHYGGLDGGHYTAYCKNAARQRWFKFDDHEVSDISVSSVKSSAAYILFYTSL
Kind of assay: Inhibition of purified USP8^CD enzymatic activity (Ub-AMC or Ub-Rho substrate). The class given is biochemical. The following applies: for USP8^CD % inhibition / inhibition at 1 µM: Ub-AMC at 1 μM, Table 1a; for inhibition at 1 µM: 1 μM compound. The method, then:
as §5
For His-tagged USP8CD, cells were resuspended in buffer A (50 mM TRIS pH 8.0, 500 mM NaCl, 2 mM Imidazole) and lysed using a sonicator. The lysate was clarified by centrifugation and applied to Ni Sepharose6 Fast Flow resin (GE Healthcare). The resin was sequentially washed first with buffer A containing 10 mM Imidazole then with buffer A containing 20 mM Imidazole, and finally with buffer A containing 50 mM Imidazole. Protein sample was eluted from the resin using buffer A containing 300 mM Imidazole. The eluted protein was buffer exchanged by gel-filtration on a Superdex 200 10/300 GL column (GE Healthcare) equilibrated in Buffer B (20 mM HEPES pH 7.5, 300 mM NaCl, 2 mM dithiothreitol (DTT)).
as §4, §6

In the case of `CC(=O)O[C@H]1C(=O)[C@@]2(C)[C@H]([C@H](OC(=O)c3ccccc3)[C@]3(O)C[C@H](OC(=O)[C@H](O)[C@@H](NC(=O)c4ccccc4)c4ccccc4)C(C)=C1C3(C)C)[C@]1(OC(C)=O)CO[C@@H]1C[C@@H]2O` [Paclitaxel, reference compound], the EC50 is 1.5 µM with MESSA cells and more than 100 µM with MESSA DX5 cells (Homo sapiens, MES-SA/Dx5, 48 hours treatment, chemoresistant line). Further, the MESSA-DX5 cells death entry in the assay on MESSA DX5 cells (high concentration (100 μM)) is “did not induce MESSA-DX5 cells death”.

As for `O=C1c2ccccc2C(=O)c2nc(CS(=O)(=O)c3ccc([N+](=O)[O-])cc3)c(CS(=O)(=O)c3ccc([N+](=O)[O-])cc3)nc21` [PCR7991], in assay [1], testing at 1 µM gave an inhibition of 46%, 5 µM produced 79% inhibition, the inhibition at 25 µM was 94% and 50 µM produced 93% inhibition. Moreover, in assay [2] (Ub-Rhodamine substrate, Table 2a, read-out: IC50 against purified USP2^CD), the IC50 is 1.7 µM. The “USP8^CD % inhibition” value in assay [3] (0.1 μM compound) stood at 42%. The “USP8^CD % inhibition” value in assay [3] (0.5 μM compound) was 97%. The compound further displayed an inhibition at 1 µM in assay [3] of 98%. For the same compound, in assay [3] (Ub-Rhodamine substrate, Table 2a, read-out: IC50 against purified USP8^CD), the IC50 is 0.05 µM.

In assay [1], `Cc1cc(C)c(S(=O)(=O)Cc2nc3c(nc2CS(=O)(=O)c2c(C)cc(C)cc2C)C(=O)c2ccccc2C3=O)c(C)c1` [PCR7996] yielded an inhibition at 1 µM of 25%, an inhibition at 5 µM of 51%, an inhibition at 25 µM of 85% and an inhibition at 50 µM of 95%. Moreover, in assay [3], the inhibition at 1 µM stood at 10%. Moreover, the “USP8^CD % inhibition” value in assay [3] (5 μM compound) worked out at 70%. For the same compound, the “USP8^CD % inhibition” value in assay [3] (25 μM compound) amounted to 100%. Further, the “USP8^CD % inhibition” value in assay [3] (50 μM compound) was 100%.

As to `O=C1c2ccccc2C(=O)c2nc(C=C3CCCC3)c(C=C3CCCC3)nc21` [PCR8153], in assay [1], the inhibition at 1 µM turned out to be 8%, the inhibition at 5 µM turned out to be 54%, 25 µM produced 98% inhibition and at 50 µM the inhibition was 98%. In assay [3], this compound registered an inhibition at 1 µM of 0%. Besides, the “USP8^CD % inhibition” value in assay [3] (5 μM compound) was 22%. Further, the “USP8^CD % inhibition” value in assay [3] (25 μM compound) is reported as 100%. In addition, the “USP8^CD % inhibition” value in assay [3] (50 μM compound) is 100%.

With `CC/C=C/c1nc2c(nc1/C=C/CC)C(=O)c1ccccc1C2=O` [PCR8156], the inhibition at 1 µM in assay [1] was 0%; in assay [3], 7%. For the same compound, 5 µM produced 28% inhibition in assay [1]. Moreover, the inhibition at 25 µM in assay [1] came to 58%. In assay [1], this compound had an inhibition at 50 µM of 94%. The “USP8^CD % inhibition” value in assay [3] (0.1 μM compound) amounted to 6%; in assay [3] (0.5 μM compound), 25%; in assay [3] (5 μM compound), 43%; in assay [3] (25 μM compound), 100%; in assay [3] (50 μM compound), 86%.

For `O=C1c2ccccc2C(=O)c2nc(CS(=O)(=O)c3cccs3)c(CS(=O)(=O)c3cccs3)nc21` [PCR7997], the inhibition at 1 µM in assay [1] was found to be 0%; in assay [3] it was 13%. The same compound gave an inhibition at 5 µM in assay [1] of 22%. This compound had an inhibition at 25 µM in assay [1] of 70%. The same compound displayed an inhibition at 50 µM in assay [1] of 99%. In addition, the “USP8^CD % inhibition” value in assay [3] (0.1 μM compound) was found to be 17%; in assay [3] (0.5 μM compound), 3%; in assay [3] (5 μM compound) it was 61%; in assay [3] (25 μM compound) it was 97%; in assay [3] (50 μM compound), 100%.

For `O=C1c2ccccc2C(=O)c2nc(CCl)c(CCl)nc21` [PCR8146], the inhibition at 1 µM was 30% in assay [1] and 6% in assay [3]. This compound displayed an inhibition at 5 µM in assay [1] of 50%. The compound further came in with an inhibition at 25 µM in assay [1] of 89%. Further, the inhibition at 50 µM in assay [1] turned out to be 99%. Also, the IC50 in assay [2] (Ub-AMC substrate at 1 μM, Table 2b, read-out: IC50 USP2 CD) was determined as 6 µM; in assay [3] (Ub-AMC substrate at 1 μM, Table 2b, read-out: IC50 USP8 CD), 2.1 µM. In addition, the “USP8^CD % inhibition” value was 11% in assay [3] (0.1 μM compound); 35% in assay [3] (0.5 μM compound); 43% in assay [3] (5 μM compound); 90% in assay [3] (25 μM compound); 100% in assay [3] (50 μM compound).
